Columns and labels:
[1] = target: heat-labile enterotoxin from E. coli (Escherichia coli, UniProt P0CK94); type: binding; conditions: at the concentration employed in the assay
cholera toxin = cholera toxin (Vibrio cholerae serotype O1, UniProt P01556); experiment: biochemical; conditions: read-out: inhibition of binding of cholera toxin to ganglioside GD1b
Chain of cholera toxin (P01556 22-124 limits assumed): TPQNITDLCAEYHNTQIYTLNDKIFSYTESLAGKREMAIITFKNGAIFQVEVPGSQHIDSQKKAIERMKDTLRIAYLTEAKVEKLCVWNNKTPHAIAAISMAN

Chain of heat-labile enterotoxin from E. coli (P0CK94 whole entry, looked up): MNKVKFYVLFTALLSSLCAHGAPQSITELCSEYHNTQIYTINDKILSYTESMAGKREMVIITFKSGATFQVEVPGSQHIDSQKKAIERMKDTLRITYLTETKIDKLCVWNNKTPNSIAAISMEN

| SMILES | inhibition of binding of heat-labile enterotoxin to ganglioside GD1b [1] | inhibition at 1000 µg/mL (cholera toxin) |
| --- | --- | --- |
| OC[C@H]1O[C@@H](SC2CCCC2O)[C@H](O)[C@@H](O)[C@H]1O (stereo partly drawn) [Example A1, 2-Hydroxycyclopent-1-yl 1-Thio-β-D-galactopyranoside] | at least 20% | < 20% |
| OC[C@H]1O[C@@H](SC2CCCCC2O)[C@H](O)[C@@H](O)[C@H]1O (stereo partly drawn) [Example A2, 2-Hydroxycyclohex-1-yl 1-Thio-β-D-galactopyranoside] | < 20% | – |
| OC[C@H]1O[C@@H](SCC2C3CCC(C3)C2O)[C@H](O)[C@@H](O)[C@H]1O (stereo partly drawn) [Example A4, (3-Hydroxynorborn-2-yl)methyl 1-Thio-β-D-galactopyranoside] | at least 20% | < 20% |
| OC[C@H]1O[C@@H](SC2CCC(O)C2)[C@H](O)[C@@H](O)[C@H]1O (stereo partly drawn) [Example A7, 3-Hydroxycyclopent-1-yl 1-Thio-β-D-galactopyranoside] | < 20% | < 20% |
| OC[C@H]1O[C@@H](SC2CCCC(O)C2)[C@H](O)[C@@H](O)[C@H]1O (stereo partly drawn) [Example A10, 3-Hydroxycyclohex-1-yl 1-Thio-β-D-galactopyranoside] | at least 20% | < 20% |
| CC1(C)CCC(S[C@@H]2O[C@H](CO)[C@H](O)[C@H](O)[C@H]2O)CC1O (stereo partly drawn) [Example A11, 4,4Dimethyl-3-hydroxycyclohex-1-yl 1-Thio-β-D-galactopyranoside] | at least 20% | – |
| NC1CCCC1S[C@@H]1O[C@H](CO)[C@H](O)[C@H](O)[C@H]1O (stereo partly drawn) [Example B1, 2-Aminocyclopent-1-yl 1-Thio-β-D-galactopyranoside] | at least 20% | < 20% |
| NC1C2CCC(C2)C1CS[C@@H]1O[C@H](CO)[C@H](O)[C@H](O)[C@H]1O (stereo partly drawn) [Example B4, (3-Aminonorborn-2-yl)methyl 1-Thio-β-D-galactopyranoside] | at least 20% | < 20% |
| NC1CCC(S[C@@H]2O[C@H](CO)[C@H](O)[C@H](O)[C@H]2O)C1 (stereo partly drawn) [Example B7, 3-Aminocyclopent-1-yl 1-Thio-β-D-galactopyranoside] | at least 20% | ≥ 20% |
| NC1CCCC(S[C@@H]2O[C@H](CO)[C@H](O)[C@H](O)[C@H]2O)C1 (stereo partly drawn) [Example B10, 3-Aminocyclohex-1-yl 1-Thio-β-D-galactopyranoside] | at least 20% | < 20% |
| CC1(C)CCC(S[C@@H]2O[C@H](CO)[C@H](O)[C@H](O)[C@H]2O)CC1N (stereo partly drawn) [Example B11, 3-Amino-4,4-dimethylcyclohex-1-yl 1-Thio-β-D-galactopyranoside] | at least 20% | – |
| CC(=O)NC1CCCCC1S[C@@H]1O[C@H](CO)[C@H](O)[C@H](O)[C@H]1O (stereo partly drawn) [Example C2, 2-Acetamidocyclohex-1-yl 1-Thio-β-D-galactopyranoside] | at least 20% | – |
| CC(=O)NC1CCCCC(S[C@@H]2O[C@H](CO)[C@H](O)[C@H](O)[C@H]2O)C1 (stereo partly drawn) [Example C5, 3-Acetamidocyclohept-1-yl 1-Thio-β-D-galactopyranoside] | at least 20% | ≥ 20% |
| CC(=O)NC1CCC(S[C@@H]2O[C@H](CO)[C@H](O)[C@H](O)[C@H]2O)C1 (stereo partly drawn) [Example C7, 3-Acetamidocyclopent-1-yl 1-Thio-β-D-galactopyranoside] | at least 20% | ≥ 20% |
| CC(=O)NC1CCCC(S[C@@H]2O[C@H](CO)[C@H](O)[C@H](O)[C@H]2O)C1 (stereo partly drawn) [Example C10, 3-Acetamidocyclohexyl 1-Thio-β-D-galactopyranoside] | < 20% | ≥ 20% |
| CC(=O)NC1CC(S[C@@H]2O[C@H](CO)[C@H](O)[C@H](O)[C@H]2O)CCC1(C)C (stereo partly drawn) [Example C11, 3-Acetamido-4,4-dimethylcyclohexyl 1-Thio-β-D-galactopyranoside] | at least 20% | – |
| O=C(O)c1ccccc1C(=O)NC1CCCCC1S[C@@H]1O[C@H](CO)[C@H](O)[C@H](O)[C@H]1O (stereo partly drawn) [Example D2, 2-(2-Carboxybenzamido)cyclohex-1-yl 1-Thio-β-D-galactopyranoside] | < 20% | – |
| O=C(O)c1ccccc1C(=O)NC1C2CCC(C2)C1CS[C@@H]1O[C@H](CO)[C@H](O)[C@H](O)[C@H]1O (stereo partly drawn) [Example D4, [3-(Carboxybenzamido)norborn-2-yl]methyl 1-Thio-β-D-galactopyranoside] | at least 20% | – |

| SMILES | inhibition of binding of heat-labile enterotoxin to ganglioside GD1b [1] | inhibition at 1000 µg/mL (cholera toxin) |
| --- | --- | --- |
| O=C(O)c1ccccc1C(=O)NC1CCCCC(S[C@@H]2O[C@H](CO)[C@H](O)[C@H](O)[C@H]2O)C1 (stereo partly shown) [Example D5, 3-(2-Carboxybenzamido)cyclohept-1-yl 1-Thio-βD-galactopyranoside] | at least 20% | ≥ 20% |
| O=C(O)CNC1CCCC1S[C@@H]1O[C@H](CO)[C@H](O)[C@H](O)[C@H]1O (stereo partly drawn) [Example E1, Nα-[2-(1-Thio-β-D-galactopyranosyl)cyclopent-1-yl]glycine] | at least 20% | ≥ 20% |
| O=C(O)CNC1CCCCC1S[C@@H]1O[C@H](CO)[C@H](O)[C@H](O)[C@H]1O (stereo partly drawn) [Example E2, Nα-[2-(1-Thio-β-D-galactopyranosyl)cyclohex-1-yl]gIycine] | at least 20% | – |
| O=C(O)CNC1C2CCC(C2)C1CS[C@@H]1O[C@H](CO)[C@H](O)[C@H](O)[C@H]1O (stereo partly drawn) [Example E4, Nα-[3-((1-Thio-β-D-galactopyranosyl)methyl)norborn-2-yl]glycine] | at least 20% | – |
| O=C(O)CNC1CCCC(S[C@@H]2O[C@H](CO)[C@H](O)[C@H](O)[C@H]2O)C1 (stereo partly drawn) [Example E10, Nα-[3-(1-Thio-β-D-galactopyranosyl)cyclohex-1-yl]glycine] | at least 20% | – |
| CC1(C)CCC(S[C@@H]2O[C@H](CO)[C@H](O)[C@H](O)[C@H]2O)CC1NCC(=O)O (stereo partly drawn) [Example E11, Nα-[5-(1-Thio-β-D-galactopyranosyl)-2 ,2-dimethylcyclohex-1-yl]glycine] | at least 20% | – |
| O=C(O)CCNC1CCCC1S[C@@H]1O[C@H](CO)[C@H](O)[C@H](O)[C@H]1O (stereo partly drawn) [Example F1, Nβ-[2-(1-Thio-β-D-galactopyranosyl)cyclopent-1-yl]-β-alanin] | at least 20% | < 20% |
| O=C(O)CCNC1CCCCC1S[C@@H]1O[C@H](CO)[C@H](O)[C@H](O)[C@H]1O (stereo partly drawn) [Example F2, Nβ-[2-(1-Thio-β-D-galactopyranosyl)cyclohex-1-yl]-β-alanine] | at least 20% | – |
| O=C(O)CCNC1CCCCC(S[C@@H]2O[C@H](CO)[C@H](O)[C@H](O)[C@H]2O)C1 (stereo partly drawn) [Example F5, Nβ-[3-(1-Thio-β-D-galactopyranosyl)cyclohept-1-yl]-β-alanine] | at least 20% | < 20% |
| O=C(O)CCNC1CCC(S[C@@H]2O[C@H](CO)[C@H](O)[C@H](O)[C@H]2O)C1 (stereo partly drawn) [Example F7, N-β-[3-(1-Thio-β-D-galactopyranosyl)cyclopent-1-yI]-β-alanine] | at least 20% | < 20% |
| CC1(C)CCC(S[C@@H]2O[C@H](CO)[C@H](O)[C@H](O)[C@H]2O)CC1NCCC(=O)O (stereo partly drawn) [Example F11, N-β-[5-(1-Thio-α-D-galactopyranosyl)-2,2-dimethylcyclohex-1-yl]-β-alanine] | at least 20% | – |
| O=C(O)[C@H](Cc1c[nH]c2ccccc12)NC1CCCC(S[C@@H]2O[C@H](CO)[C@H](O)[C@H](O)[C@H]2O)C1 (stereo partly drawn) [Example I10, Nα-[3-(1-Thio-β-D-galactopyranosyl)cyclohex-1-yl]-L-tryptophan] | – | < 20% |
| N=C(N)NCCC[C@H](NC1CCCC1S[C@@H]1O[C@H](CO)[C@H](O)[C@H](O)[C@H]1O)C(=O)O (stereo partly drawn) [Example J1, Nα-[2-(1-Thio-β-D-galactopyranosyl)cyclopent-1-yl]-L-arginine] | – | ≥ 20% |
| CC(CC(S[C@@H]1O[C@H](CO)[C@H](O)[C@H](O)[C@H]1O)c1ccccc1)N[C@@H](CCCNC(=N)N)C(=O)O (stereo partly drawn) [Example J3, Nα-[4-Phenyl-4-(1-Thio-β-D-galactopyranosyl)but-2-yl]-L-arginine] | – | ≥ 20% |
| N=C(N)NCCC[C@H](NC1CCCCC(S[C@@H]2O[C@H](CO)[C@H](O)[C@H](O)[C@H]2O)C1)C(=O)O (stereo partly drawn) [Example J5, Nα-[3-(1-Thio-β-D-galactopyranosyl)cyclohept-1-yl]-L-arginine] | – | < 20% |
| CC1(C)CC(N[C@@H](CCCNC(=N)N)C(=O)O)CC1S[C@@H]1O[C@H](CO)[C@H](O)[C@H](O)[C@H]1O (stereo partly drawn) [Example J6, Nα-[4,4-Dimethyl-3-(1-thio-β-D-galactopyranosyl)-cyclopent-1-yl]-L-arginine] | – | < 20% |
| CC(CC(C)S[C@@H]1O[C@H](CO)[C@H](O)[C@H](O)[C@H]1O)N[C@@H](CCCNC(=N)N)C(=O)O (stereo partly drawn) [Example J8, Nα-[4-(1-Thio-β-D-galactopyranosyl)pent-2-yl]-L-arginine] | – | < 20% |
| N=C(N)NCCC[C@H](NC1CCCC(S[C@@H]2O[C@H](CO)[C@H](O)[C@H](O)[C@H]2O)C1)C(=O)O (stereo partly drawn) [Example J10, Nα-[3-(1-Thio-β-D-galactopyranosyl)cyclohex-1-yl]-L-arginine] | – | < 20% |

Reference: US5968907A (priority 1997, dated 1999)
